# Conditions: rat, microsomes, 1 h, 10 µM
# Protocol: The procedure for identifying microsomal metabolites is as follows:
# The compounds (test compounds and their numbers are shown below, among which compounds A1 and B1 are prepared by referring to the relevant method disclosed in CN110396087A) were weighed and dissolved into dimethyl sulfoxide to prepare a 20 mM solution. The compound stock solution was diluted with 50% acetonitrile in water (v/v) to a concentration of 1.0 mM as a working solution. Liver microsomes (20 mg/mL) were diluted to 1.27 mg/mL with 50 mM dipotassium hydrogen phosphate buffer as a liver microsome working solution. Reduced coenzyme was weighed and dissolved in 3307 μL of phosphate buffer (50 mM) to 5.0 mM as a reduced coenzyme working solution. For T=60 minutes samples, 4 μL of test working solution (1.0 mM) was added, followed by 316 μL of liver microsome working solution (1.27 mg/mL), and finally, 80 μL of reduced coenzyme working solution was added to start the reaction. For T=0 minutes samples, 316 μL of liver microsome working solution (1.27 mg/mL) was added and then 80 μL of reduced coenzyme working solution was added to start the reaction, without test solution incubation. After incubation at 37° C. for 60 minutes, 1200 μL of stop solution was added to stop the enzyme reaction. For T=0 minute samples, 4 μL of test working solution (1.0 mM) was added. The sample plate was placed on a vortexer and vortexed at 600 rpm for 5 minutes. Then, the sample plate was centrifuged at 4000 rpm for 10 minutes. The supernatant was removed, mixed, and dried at room temperature with nitrogen. The residue dried with nitrogen was redissolved in 300 μL of 10% acetonitrile (0.1% FA) solvent and then centrifuged at 4000 rpm for 15 minutes. The supernatant was transferred to a detection plate for mass spectrometry. Mass spectrometry was performed using LC/Q-Exactive plus.
# 7-Ethoxycoumarin (10 μM) was selected as a positive control compound and operated in parallel with the compounds.
compound,measurement,value
"[2H]C([2H])([2H])N1CCC(n2cc(-c3cnc(N)c(OCc4cccc(C#CC(C)(C)O)c4)c3)cn2)CC1 [Compound A2, 4-(3-(((2-amino-5-(1-(1-trideuteriomethylpiperidin-4-yl)-1H-pyrazol-4-yl)pyridin-3-yl)oxy)methyl)phenyl)-2-methylbut-3-yn-2-ol]",remaining percentage of the parent cores after 60 min,52.1%
